Test results from US9447132B2 (priority 2013, dated 2016).
Marks after values point to notes of the source that are not given here.

What was measured:
HCV replicon = experiment: Predicted EC50 against HCV replicon in primary human hepatocytes; assay type: cell-based; details: Hepatitis C virus, Hepatocyte
[1] = Buffer stability (stability of the compounds in the absence of cells); assay type: physicochemical; details: 24 hr
primary hepatocytes = experiment: Formula IV concentration from Formula II dosing in primary hepatocytes; assay type: in vitro ADME, human
Source text: The general methods of Example 13 were used to determine compound concentrations.

human liver hepatocytes = experiment: Triphosphate levels (Formula IV, GS-7977-TP) in human hepatocytes; assay type: in vitro ADME; details: for time at which peak levels were obtained: 5 μM parent, 48 hours of incubation
Experimental: […] Cells were washed twice with cold PBS.
Supernatants were removed and analyzed by LC-MS/MS. […] Samples were centrifuged at 3000 rpm for 15 minutes. Supernatants were removed and analyzed by LC-MS/MS.

[2] = test system: beagle dog liver hepatocyte; experiment: Half-life of active triphosphate in dog hepatocytes; assay type: in vitro ADME; details: parenthesis = 95% confidence interval
Experimental: (§1) Human hepatocyte cells used for half-life determinations were human liver hepatocyte 12-well format cells and were seeded at 0.67 million cells per well. Canine hepatocyte cells used for half-life determinations were beagle dog liver hepatocyte 12-well format cells and were seeded at 0.67 million cells per well. Monkey hepatocyte cells used for half-life determinations were Cynomolgus monkey liver hepatocyte 12-well format cells, and were seeded at 0.9 million cells per well. Rat hepatocyte cells for half-life determinations were Sprague-Dawley (SD) rat liver hepatocyte 12-well format cells, and were seeded at 0.67 million cells per well. All cells were obtained from Life Technologies.

[3] = test system: Cynomolgus monkey liver hepatocyte; experiment: Half-life of active triphosphate in monkey hepatocytes; assay type: in vitro ADME; details: parenthesis = 95% confidence interval
Experimental: as §1

[4] = test system: Sprague-Dawley (SD) rat liver hepatocyte; experiment: Half-life of active triphosphate in rat hepatocytes; assay type: in vitro ADME; details: parenthesis = 95% confidence interval
Experimental: as §1

human liver hepatocyte = experiment: Half-life of active triphosphate in human hepatocytes; assay type: in vitro ADME; details: for t1/2 (hr): Human hepatocytes, parenthesis = 95% confidence interval
Experimental: as §1

[5] = test system: hepatocytes (human, dog, monkey and rat); experiment: Half-lives of active triphosphate in hepatocytes from four species; assay type: in vitro ADME; details: across hepatocytes from four species (human, dog, monkey, rat)
Experimental: as §1

HCV genotype 1, 2 or 3 = details: once-daily 300 mg for seven days, treatment naïve patients; cited from earlier work
HCV = details: several large clinical trials; cited from earlier work
HCV genotype 1 = details: cited from earlier work
[6] = 2 hr incubation with 5 μM Formula II
[7] = 4 hr incubation with 5 μM Formula II
[8] = 8 hr incubation with 5 μM Formula II
[9] = 25 hr incubation with 5 μM Formula II
[10] = 48 hr incubation with 5 μM Formula II

[2H]c1cn([C@@H]2O[C@H](C([2H])([2H])OP(=O)(N[C@@H](C)C(=O)OC(C)C)Oc3ccccc3)[C@@H](O)[C@@]2(C)O)c(=O)[nH]c1=O (stereo partly drawn) [Formula II]
EC50 (HCV replicon): 6.25 to 10 nM | Buffer Stability Parent T24 hr 37° C. ([1]; Table 1): 97 | Buffer Stability Parent T24 hr 37° C. ([1]; Table 2): 97

C[C@]1(O)C(n2ccc(=O)[nH]c2=O)OC(COP(=O)(O)OP(=O)(O)OP(=O)(O)O)[C@H]1O (stereo partly drawn) [Formula IV]
Formula IV concentration higher than in Huh-luc/neo cells (primary hepatocytes; 50 nM Formula II, primary hepatocytes vs Huh-luc/neo cells): 5- to 8 fold | level of Formula IV (primary hepatocytes; Formula II at 50 nM, primary hepatocytes, 24 hours): 9.2-16.2 pmol/million cells | time at which peak levels were obtained (human liver hepatocytes; human hepatocytes): > 48 h | Formula IV (pmol/million cells) rep 1 (human liver hepatocytes; [6]): 72.1 pmol/million cells | Formula IV (pmol/million cells) rep 2 (human liver hepatocytes; [6]): 71.5 pmol/million cells | Formula IV (pmol/million cells) rep 3 (human liver hepatocytes; [6]): 67.9 pmol/million cells | Formula IV (pmol/million cells) rep 1 (human liver hepatocytes; [7]): 130 pmol/million cells | Formula IV (pmol/million cells) rep 2 (human liver hepatocytes; [7]): 129 pmol/million cells | Formula IV (pmol/million cells) rep 3 (human liver hepatocytes; [7]): 129 pmol/million cells | Formula IV (pmol/million cells) rep 1 (human liver hepatocytes; [8]): 218 pmol/million cells | Formula IV (pmol/million cells) rep 2 (human liver hepatocytes; [8]): 217 pmol/million cells | Formula IV (pmol/million cells) rep 3 (human liver hepatocytes; [8]): 236 pmol/million cells | Formula IV (pmol/million cells) Mean+StDev (human liver hepatocytes; [9]): 486 pmol/million cells | Formula IV (pmol/million cells) rep 1 (human liver hepatocytes; [9]): 506 pmol/million cells | Formula IV (pmol/million cells) rep 2 (human liver hepatocytes; [9]): 465 pmol/million cells | Formula IV (pmol/million cells) rep 3 (human liver hepatocytes; [9]): 488 pmol/million cells | Formula IV (pmol/million cells) rep 1 (human liver hepatocytes; [10]): 619 pmol/million cells | Formula IV (pmol/million cells) rep 2 (human liver hepatocytes; [10]): 581 pmol/million cells | Formula IV (pmol/million cells) rep 3 (human liver hepatocytes; [10]): 575 pmol/million cells | t1/2 (hr) [2]: 29.6 (22.0-45.4) hr | t1/2 (hr) [3]: 14.5 (11.8-18.9) hr | t1/2 (hr) [4]: 10.2 (8.6-12.5) hr | t1/2 (hr) (human liver hepatocyte): 27.6 (26.0-29.4)^a hr | half-life (human liver hepatocyte; human hepatocytes): > 24 h | half-lives range [5]: 10 to 30 h

C[C@@]1(F)[C@H](O)[C@@H](COP(=O)(O)OP(=O)(O)OP(=O)(O)O)O[C@H]1n1ccc(=O)[nH]c1=O [GS-7977-TP, reference compound]
time at which peak levels were obtained (human liver hepatocytes; human hepatocytes): 24 h | intracellular conversion to triphosphate, greater than that of Formula IV from Formula II (human liver hepatocytes; over a 48 hour period, 5 μM, human hepatocytes): 2 fold | t1/2 (hr) [2]: 17.7 (15.0-21.5) hr | t1/2 (hr) [3]: 9.3 (7.9-11.4) hr | t1/2 (hr) [4]: 7.6 (6.4-9.3) hr | t1/2 (hr) (human liver hepatocyte): 22.6 (21.5-23.9) hr | half-lives range [5]: 8 to 23 h

CC(C)OC(=O)[C@@H](C)N[P@@](=O)(OC[C@H]1O[C@@H](n2ccc(=O)[nH]c2=O)[C@](C)(Cl)[C@@H]1O)Oc1ccccc1 [IDX21437]
mean maximum reduction in viral load (HCV genotype 1, 2 or 3): 4.2-4.3 log 10 IU/mL

CC(C)OC(=O)[C@H](C)N[P@](=O)(OC[C@H]1O[C@@H](n2ccc(=O)[nH]c2=O)[C@@](C)(F)C1O)Oc1ccccc1 (stereo partly drawn) [Sovaldi, Sofosbuvir]
sustained viral response (SVR) of twelve weeks, trial participants (HCV): 50-90%

CC(C)OC(=O)[C@H](C)NP(=S)(OC[C@H]1O[C@@H](n2ccc(=O)[nH]c2=O)[C@](C)(O)[C@@H]1O)Oc1ccccc1 (stereo partly drawn) [VX-135]
completion of treatment rate (SVR4) (HCV genotype 1; eleven patients who completed 12 weeks of treatment, with daclatasvir): 91% | sustained viral response rate four weeks after completion of treatment (SVR4) (HCV genotype 1; intent-to-treat, treatment-naïve genotype 1, 200 mg VX-135 in combination with daclatasvir): 83%
